Patent publication US6753342B2, “2-(1h-indol-3-yl)-2-oxo-acetamides with antitumor activity” (Novuspharma S.p.A., priority 1999, dated 2004)
≈ marks a conversion by molar mass, not a printed value.

Columns and labels:
[1] = system: MKN-45 (gastric carcinoma); test: Cytotoxicity, MTT assay, MKN-45 cells; format: cell-based; conditions: human gastric carcinoma cells, 144 hours incubation, read-out: MKN-45 (IC50, μg/ml)
Experimental: (§1) The compounds according to the invention have been pharmacologically tested against four human tumor cell lines: HT 29 (colon carcinoma), PC 3 (prostate carcinoma), H 460M (lung carcinoma), MKN-45 (gastric carcinoma). Cells were incubated with the tested compound for 144 hours, then cytotoxicity was determined by using the MTT assay (Mosman, T. “Rapid Colorimetric Assay for Cellular Growth and Survival: Application to Proliferation and Cytotoxicity Assay”; J. Immunolog. Methods, (1983), 65, 66; Green, L. M., “Rapid Colorimetric Assay for Cell Viability; Application to the Quantitation of Cytotoxic and Growth Inhibitory Lymphokines”, J. Immunol. Methods, (1984),;70, 257-268).
(§2) The compounds according to the invention have been pharmacologically tested against four human tumour cell lines: HT 29 (colon carcinoma), PC 3 (prostate carcinoma), H 460M (lung carcinoma), MKN45 (gastric carcinoma). Cells were incubated with the tested compound for 144 hours, then cytotoxicity was determined by using the MTT assay (Mosman, T. “Rapid Colorimetric Assay for Cellular Growth and Survival: Application to Proliferation and Cytotoxicity Assay”; J. Immunolog. Methods, (1983), 65, 66; Green, L. M., “Rapid Colorimetric Assay for Cell Viability; Application to the Quantitation of Cytotoxic and Growth Inhibitory Lymphokines”, J. Immunol. Methods, (1984), 70, 257-268).

[2] = system: HT 29 (colon carcinoma); test: Cytotoxicity, MTT assay, HT 29 cells; format: cell-based; conditions: human colon adenocarcinoma cells, 144 hours incubation, read-out: HT29 (IC50, μg/ml)
Experimental: as §1, §2

[3] = system: H 460M (lung carcinoma); test: Cytotoxicity, MTT assay, H 460M cells; format: cell-based; conditions: human lung carcinoma cells, 144 hours incubation, read-out: H460M (IC50, μg/ml)
Experimental: as §1, §2

[4] = system: PC 3 (prostate carcinoma); test: Cytotoxicity, MTT assay, PC 3 cells; format: cell-based; conditions: human prostate carcinoma cells, 144 hours incubation, read-out: PC3 (IC50, μg/ml)
Experimental: as §1, §2

O=C1C=C(NC(=O)C(=O)c2cn(Cc3ccc(Cl)cc3)c3cc(Cl)ccc23)CO1 [Example 4]
IC50 [1]: 0.12 µg/mL (≈ 0.28 µM) | IC50 [2]: 0.1 µg/mL (≈ 0.233 µM) | IC50 [3]: 0.049 µg/mL (≈ 0.114 µM) | IC50 [4]: 0.3 µg/mL (≈ 0.699 µM)

NCCNC(=O)c1cccc2c1c(C(=O)C(=O)NC1=CC(=O)OC1)cn2Cc1ccc(Cl)cc1
melting point: 190 to 196 °C

O=C1C=C(NC(=O)C(=O)c2cn(Cc3ccc(Cl)cc3)c3cccc(CO)c23)CO1
melting point: 238 to 240 °C

O=C1C=C(NC(=O)C(=O)c2cn(Cc3ccc(Cl)cc3)c3ccccc23)CO1 [Example 2, N-(5-oxo-2,5-dihydrofuran-3-yl)-2-(1-(4-chlorobenzyl)-1H-indol-3-yl)-2-oxo-acetamide]
melting point: 253 to 255 °C | IC50 [1]: 0.048 µg/mL (≈ 0.122 µM) | IC50 [2]: 0.13 µg/mL (≈ 0.329 µM) | IC50 [3]: 0.011 µg/mL (≈ 0.0279 µM) | IC50 [4]: 0.22 µg/mL (≈ 0.557 µM)

O=C1C=C(NC(=O)C(=O)c2cn(Cc3ccc(F)cc3)c3ccccc23)CO1 [Example 3, N-(5-oxo-2,5-dihydrofuran-3-yl)-2-(1-(4-fluorobenzyl)-1H-indol-3-yl)-2-oxo-acetamide]
melting point: 260 to 262 °C | IC50 [1]: 0.088 µg/mL (≈ 0.233 µM) | IC50 [2]: 0.0004 µg/mL (≈ 0.00106 µM) | IC50 [3]: 0.012 µg/mL (≈ 0.0317 µM) | IC50 [4]: 0.035 µg/mL (≈ 0.0925 µM)

CN(C)CCNC(=O)c1cccc2c1c(C(=O)C(=O)NC1=CC(=O)OC1)cn2Cc1ccc(Cl)cc1
melting point: 225 to 227 °C

O=C1C=C(NC(=O)C(=O)c2cn(Cc3ccc(Cl)cc3)c3ccccc23)CS1
melting point: 268 to 270 °C
